Results published in PubChem BioAssay (NCI).
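Grown in 96-well plates, cells were treated for 48 hours with each compound at five concentrations. Insufficient inhibition: endpoint recorded as highest concentration tested. The concentration for 50% growth inhibition is given as GI50. TGI denotes the concentration required for complete inhibition of growth.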

How the values were obtained:
Assay in all cases: DTP human tumour cell line panel, 48 h
[1] = tested on: SK-MEL-5 melanoma
[2] = tested on: RXF 393 renal
[3] = tested on: OVCAR-5 ovarian
[4] = tested on: SN12C renal
[5] = tested on: U251 CNS
[6] = tested on: UO-31 renal
[7] = tested on: HS 578T breast
[8] = tested on: 786-0 renal
[9] = tested on: HOP-62 NSCLC
[10] = tested on: NCI-H460 lung
[11] = tested on: DU-145 prostate
[12] = tested on: SNB-19 CNS
[13] = tested on: SF-268 CNS
[14] = tested on: MCF7 breast
[15] = tested on: OVCAR-8 ovarian
[16] = tested on: SK-MEL-2 melanoma
[17] = tested on: SK-OV-3 ovarian
[18] = tested on: A549 NSCLC
[19] = tested on: MALME-3M melanoma
[20] = tested on: OVCAR-3 ovarian
[21] = tested on: A498 renal
[22] = tested on: LOX IMVI melanoma
[23] = tested on: MDA-MB-468 breast
[24] = tested on: MDA-MB-435
[25] = tested on: TK-10 renal
[26] = tested on: UACC-257 melanoma
[27] = tested on: SF-539 CNS
[28] = tested on: CCRF-CEM leukemia
[29] = tested on: MOLT-4 leukemia
[30] = tested on: NCI-H226 lung
[31] = tested on: NCI-H522 lung
[32] = tested on: CAKI-1 renal
[33] = tested on: SNB-75 CNS
[34] = tested on: MDA-MB-231 breast
[35] = tested on: M14 melanoma
[36] = tested on: K-562 leukemia
[37] = tested on: HT29 colon
[38] = tested on: NCI/ADR-RES ovarian
[39] = tested on: IGROV1 ovarian
[40] = tested on: HCT-116 colon
[41] = tested on: SF-295 CNS
[42] = tested on: KM12 colon
[43] = tested on: HL-60(TB) leukemia
[44] = tested on: RPMI-8226 leukemia
[45] = tested on: COLO 205 colon
[46] = tested on: SR leukemia
[47] = tested on: NCI-H23 lung
[48] = tested on: T-47D breast
[49] = tested on: OVCAR-4 ovarian
[50] = tested on: EKVX NSCLC
[51] = tested on: HCT-15 colon
[52] = tested on: ACHN renal
[53] = tested on: HOP-92 NSCLC
[54] = tested on: BT-549 breast
[55] = tested on: PC-3 prostate
[56] = tested on: UACC-62 melanoma
[57] = tested on: SK-MEL-28 melanoma
[58] = tested on: HCC-2998 colon
[59] = tested on: SW-620 colon

## COc1ccc2[nH]c(O)c(N=Nc3nc(-c4ccc(Cl)cc4)cs3)c2c1
[1]
  GI50: 4.1 µM
  TGI: 19.4 µM
[2]
  GI50: 1.67 µM
  TGI: 3.29 µM
[3]
  GI50: 3.09 µM
  TGI: 17 µM
[4]
  GI50: 1.93 µM
  TGI: 4.42 µM
[5]
  GI50: 2.06 µM
  TGI: 4.18 µM
[6]
  GI50: 3.3 µM
  TGI: 16.3 µM
[7]
  GI50: 4.54 µM
  TGI: 99.7 µM
[8]
  GI50: 1.6 µM
  TGI: 3.09 µM
[9]
  GI50: 2.61 µM
  TGI: 9.06 µM
[10]
  GI50: 2.68 µM
  TGI: 6.25 µM
[11]
  GI50: 3.61 µM
  TGI: 30.9 µM
[12]
  GI50: 4.56 µM
  TGI: 38.3 µM
[13]
  GI50: 4.41 µM
  TGI: > 100 µM
[14]
  GI50: 2.53 µM
  TGI: 16.7 µM
[15]
  GI50: 1.86 µM
  TGI: 3.71 µM
[16]
  GI50: 3.14 µM
  TGI: 34.4 µM
[17]
  GI50: 3.07 µM
  TGI: 19.7 µM
[18]
  GI50: 2.08 µM
  TGI: 5.09 µM
[19]
  GI50: 1.74 µM
  TGI: 3.37 µM
[20]
  GI50: 1.81 µM
  TGI: 3.53 µM
[21]
  GI50: 2.22 µM
  TGI: 4.94 µM
[22]
  GI50: 1.9 µM
  TGI: 4.08 µM
[23]
  GI50: 1.45 µM
  TGI: 3.24 µM
[24]
  GI50: 5.86 µM
  TGI: > 100 µM
[25]
  GI50: 9.16 µM
  TGI: 32.3 µM
[26]
  GI50: 6.52 µM
  TGI: > 100 µM
[27]
  GI50: 1.98 µM
  TGI: 4.22 µM
[28]
  GI50: 4.1 µM
  TGI: > 100 µM
[29]
  GI50: 3.26 µM
  TGI: > 100 µM
[30]
  GI50: 3 µM
  TGI: 12.4 µM
[31]
  GI50: 2.09 µM
  TGI: 6.38 µM
[32]
  GI50: 6.7 µM
  TGI: 30.6 µM
[33]
  GI50: 3.36 µM
  TGI: 17.5 µM
[34]
  GI50: 2.73 µM
  TGI: 8.19 µM
[35]
  GI50: 1.99 µM
  TGI: 5.29 µM
[36]
  GI50: 3.49 µM
  TGI: > 100 µM
[37]
  GI50: 3.52 µM
  TGI: 50.8 µM
[38]
  GI50: 1.92 µM
  TGI: 4.03 µM
[39]
  GI50: 4.51 µM
  TGI: 60.8 µM
[40]
  GI50: 1.88 µM
  TGI: 3.75 µM
[41]
  GI50: 5.01 µM
  TGI: 20.6 µM
[42]
  GI50: 3.15 µM
  TGI: > 100 µM
[43]
  GI50: > 100 µM
  TGI: > 100 µM
[44]
  GI50: 3.91 µM
  TGI: > 100 µM
[45]
  GI50: 3.1 µM
  TGI: > 100 µM
[46]
  GI50: 4.69 µM
  TGI: > 100 µM
[47]
  GI50: 2.12 µM
  TGI: 5.62 µM
[48]
  GI50: 1.83 µM
  TGI: 5.97 µM
[49]
  GI50: 1.83 µM
  TGI: 3.54 µM
[50]
  GI50: 2.7 µM
  TGI: 21.4 µM
[51]
  GI50: 1.93 µM
  TGI: 4.14 µM
[52]
  GI50: 2.9 µM
  TGI: 8.71 µM
[53]
  GI50: 1.92 µM
  TGI: 4.88 µM
[54]
  GI50: 3.21 µM
  TGI: 28.3 µM

## Cn1cc(-c2cc3nc(-c4cn(C)c5ncc(Br)cc45)cc(N)n3n2)c2cc(F)ccc21
[1]
  GI50: 12.5 µM
  TGI: 25.4 µM
[2]
  GI50: 2.54 µM
  TGI: 5.96 µM
[3]
  GI50: 12.5 µM
  TGI: 29.4 µM
[4]
  GI50: 4.41 µM
  TGI: 19.8 µM
[5]
  GI50: 3.23 µM
  TGI: 11.5 µM
[6]
  GI50: 12.2 µM
  TGI: 25.4 µM
[7]
  GI50: 10.7 µM
  TGI: 48.6 µM
[8]
  GI50: 4.64 µM
  TGI: 17 µM
[9]
  GI50: 7.8 µM
  TGI: 24.3 µM
[10]
  GI50: 3.44 µM
  TGI: 11.6 µM
[11]
  GI50: 5.16 µM
  TGI: 19.3 µM
[55]
  GI50: 10.4 µM
  TGI: 46.8 µM
[12]
  GI50: 11 µM
  TGI: 23.8 µM
[13]
  GI50: 19.2 µM
  TGI: 79.8 µM
[14]
  GI50: 3.6 µM
  TGI: 12.8 µM
[15]
  GI50: 6.2 µM
  TGI: 20.9 µM
[16]
  GI50: 11.4 µM
  TGI: 24.2 µM
[56]
  GI50: 2.64 µM
  TGI: 10.9 µM
[17]
  GI50: 15 µM
  TGI: 32.4 µM
[18]
  GI50: 3.37 µM
  TGI: 16.8 µM
[57]
  GI50: 3.9 µM
  TGI: 14.4 µM
[19]
  GI50: 3.43 µM
  TGI: 12.1 µM
[20]
  GI50: 11.1 µM
  TGI: 27 µM
[21]
  GI50: 13.5 µM
  TGI: 30.2 µM
[22]
  GI50: 1.91 µM
  TGI: 3.47 µM
[23]
  GI50: 1.95 µM
  TGI: 4.19 µM
[24]
  GI50: 6.19 µM
  TGI: 20.1 µM
[25]
  GI50: 4.92 µM
  TGI: 18.8 µM
[26]
  GI50: 7.29 µM
  TGI: 21.4 µM
[27]
  GI50: 3.54 µM
  TGI: 13 µM
[28]
  GI50: 8.29 µM
  TGI: > 100 µM
[29]
  GI50: 5.98 µM
  TGI: > 100 µM
[30]
  GI50: 5.36 µM
  TGI: 19.8 µM
[31]
  GI50: 5.61 µM
  TGI: 21.6 µM
[32]
  GI50: 8.11 µM
  TGI: 22.5 µM
[34]
  GI50: 2.9 µM
  TGI: 10 µM
[35]
  GI50: 4.05 µM
  TGI: 14.9 µM
[36]
  GI50: 6 µM
  TGI: > 100 µM
[37]
  GI50: 3.18 µM
  TGI: 11.3 µM
[39]
  GI50: 3.91 µM
  TGI: 14.1 µM
[58]
  GI50: 7.19 µM
  TGI: 27.6 µM
[40]
  GI50: 15 µM
  TGI: 32.3 µM
[41]
  GI50: 1.8 µM
  TGI: 3.82 µM
[42]
  GI50: 12.9 µM
  TGI: 49 µM
[43]
  GI50: 12.1 µM
  TGI: 73.1 µM
[44]
  GI50: 10.1 µM
  TGI: > 100 µM
[45]
  GI50: 12.6 µM
  TGI: 40.7 µM
[46]
  GI50: 4.58 µM
  TGI: > 100 µM
[47]
  GI50: 7.44 µM
  TGI: 21.3 µM
[48]
  GI50: 3.25 µM
  TGI: 15.6 µM
[49]
  GI50: 4.51 µM
  TGI: 19.3 µM
[50]
  GI50: 11.4 µM
  TGI: 29.7 µM
[51]
  GI50: 3.73 µM
  TGI: 16.4 µM
[52]
  GI50: 3.72 µM
  TGI: 13.2 µM
[53]
  GI50: 11.3 µM
  TGI: 33.8 µM
[59]
  GI50: 6.46 µM
  TGI: 21.5 µM
[54]
  GI50: 10.9 µM
  TGI: 23.6 µM
